Test results as given in patent publication US10294202B2, “Pyrrolidinones as herbicides” (FMC Corporation, priority 2013, dated 2019).

Assays:
corn = assay: Test A pre-/postemergence herbicide test; type: in vivo, Zea mays
In short: (§1)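 Approximately 10 days after treatment in the greenhouse, plants were compared with untreated controls and given a 0–100 visual injury rating. Applications: preemergence directed soil spray; postemergence on 2–10 cm plants at the one- to two-leaf stage.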

sedge, umbrella = assay: Test B flooded paddy test; type: in vivo, Cyperus difformis; conditions: Flood, scale of 0 to 100 where 0 is no effect and 100 is complete control
In short: (§2)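 First, plants reach the 2-leaf stage; next, pots are flooded to 3 cm and compound is delivered into the water; finally, after 13 to 15 greenhouse days at constant depth, injury is graded visually from 0 to 100 against controls.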

rice = assay: Test B flooded paddy test; type: in vivo, Oryza sativa; conditions: Flood, scale of 0 to 100 where 0 is no effect and 100 is complete control
In short: as §2

ducksalad = assay: Test B flooded paddy test; type: in vivo, Heteranthera limosa; conditions: Flood, scale of 0 to 100 where 0 is no effect and 100 is complete control
In short: as §2

morningglory = assay: Test A pre-/postemergence herbicide test; type: in vivo, Ipomoea spp.
In short: as §1

barnyardgrass [1] = assay: Test A pre-/postemergence herbicide test; type: in vivo, Echinochloa crus-galli
In short: as §1

pigweed = assay: Test A pre-/postemergence herbicide test; type: in vivo, Amaranthus retroflexus
In short: as §1

wheat = assay: Test A pre-/postemergence herbicide test; type: in vivo, Triticum aestivum
In short: as §1

velvetleaf = assay: Test A pre-/postemergence herbicide test; type: in vivo, Abutilon theophrasti
In short: as §1

barnyardgrass [2] = assay: Test B flooded paddy test; type: in vivo, Echinochloa crus-galli; conditions: Flood, scale of 0 to 100 where 0 is no effect and 100 is complete control
In short: as §2

giant foxtail = assay: Test A pre-/postemergence herbicide test; type: in vivo, Setaria faberii
In short: as §1

crabgrass, large = assay: Test A pre-/postemergence herbicide test; type: in vivo, Digitaria sanguinalis
In short: as §1

[3] = Postemergence, 125 g ai/ha, 0 to 100 scale, 0 is no effect, 100 is complete control
[4] = Postemergence, 500 g ai/ha, 0 to 100 scale (0 no effect, 100 complete control)
[5] = Preemergence, 125 g ai/ha, 0 to 100 scale where 0 is no effect and 100 is complete control
[6] = preemergence, 500 g ai/ha, 0 to 100 scale, 0 is no effect and 100 is complete control

Row | Compound | Plant response rating, Corn (corn; [3]) | Plant response rating, Corn (corn; [4]) | Plant response rating, Corn (corn; [5]) | Plant response rating, Corn (corn; [6]) | Plant response rating, Morningglory (morningglory; [3]) | Plant response rating, Morningglory (morningglory; [4]) | Plant response rating, Morningglory (morningglory; [5]) | Plant response rating, Morningglory (morningglory; [6]) | Plant response rating, Barnyardgrass (barnyardgrass [1]; [3]) | Plant response rating, Barnyardgrass (barnyardgrass [1]; [4]) | Plant response rating, Barnyardgrass (barnyardgrass [1]; [5]) | Plant response rating, Barnyardgrass (barnyardgrass [1]; [6]) | Plant response rating, Pigweed (pigweed; [3]) | Plant response rating, Pigweed (pigweed; [4]) | Plant response rating, Pigweed (pigweed; [5]) | Plant response rating, Pigweed (pigweed; [6]) | Plant response rating, Wheat (wheat; [3]) | Plant response rating, Wheat (wheat; [4]) | Plant response rating, Wheat (wheat; [5]) | Plant response rating, Wheat (wheat; [6]) | also measured
1 | O=C1NCC(c2ccc(F)c(F)c2)C1C(=O)Nc1cccc(C(F)(F)F)n1 (racemic) [Compound 245] | 0 | 0 | 0 | 0 | 0 | 0 | 0 | 0 | 30 | 50 | 20 | 20 | 40 | 40 | 0 | 30 | 0 | 40 | 0 | 0 | Plant response rating, Sedge, Umbrella (sedge, umbrella; 1000 g ai/ha): 0; Plant response rating, Rice (rice; 1000 g ai/ha): 0; Plant response rating, Ducksalad (ducksalad; 1000 g ai/ha): 90; Plant response rating, Velvetleaf (velvetleaf; [3]): 20; Plant response rating, Velvetleaf (velvetleaf; [4]): 40; Plant response rating, Velvetleaf (velvetleaf; [5]): 0; Plant response rating, Velvetleaf (velvetleaf; [6]): 0; Plant response rating, Barnyardgrass (barnyardgrass [2]; 1000 g ai/ha): 20; Plant response rating, Foxtail, Giant (giant foxtail; [3]): 20; Plant response rating, Foxtail, Giant (giant foxtail; [4]): 30; Plant response rating, Foxtail, Giant (giant foxtail; [5]): 60; Plant response rating, Foxtail, Giant (giant foxtail; [6]): 70; Plant response rating, Crabgrass, Large (crabgrass, large; [3]): 20; Plant response rating, Crabgrass, Large (crabgrass, large; [4]): 30; Plant response rating, Crabgrass, Large (crabgrass, large; [5]): 60; Plant response rating, Crabgrass, Large (crabgrass, large; [6]): 80
2 | O=C1NCC(c2ccc(OC(F)(F)F)cc2)C1C(=O)Nc1ccccc1F (racemic) [Compound 256] | 0 | 0 | 0 | 0 | 0 | 0 | 0 | 0 | 0 | 20 | 0 | 20 | 0 | 0 | 0 | 0 | 0 | 20 | 0 | 0 | Plant response rating, Sedge, Umbrella (sedge, umbrella; 250 g ai/ha): 50; Plant response rating, Rice (rice; 250 g ai/ha): 0; Plant response rating, Ducksalad (ducksalad; 250 g ai/ha): 60; Plant response rating, Velvetleaf (velvetleaf; [3]): 0; Plant response rating, Velvetleaf (velvetleaf; [4]): 0; Plant response rating, Velvetleaf (velvetleaf; [5]): 0; Plant response rating, Velvetleaf (velvetleaf; [6]): 0; Plant response rating, Barnyardgrass (barnyardgrass [2]; 250 g ai/ha): 0; Plant response rating, Foxtail, Giant (giant foxtail; [3]): 40; Plant response rating, Foxtail, Giant (giant foxtail; [4]): 70; Plant response rating, Foxtail, Giant (giant foxtail; [5]): 20; Plant response rating, Foxtail, Giant (giant foxtail; [6]): 60; Plant response rating, Crabgrass, Large (crabgrass, large; [3]): 70; Plant response rating, Crabgrass, Large (crabgrass, large; [4]): 90; Plant response rating, Crabgrass, Large (crabgrass, large; [5]): 80; Plant response rating, Crabgrass, Large (crabgrass, large; [6]): 90
3 | O=C1NCC(c2ccc(OC(F)(F)F)cc2)C1C(=O)Nc1ccccc1C(F)(F)F (racemic) [Compound 258] | 0 | 20 | 0 | 0 | 0 | 0 | 0 | 0 | 40 | 80 | 20 | 90 | 0 | 0 | 0 | 0 | 0 | 30 | 0 | 0 | Plant response rating, Sedge, Umbrella (sedge, umbrella; 250 g ai/ha): 40; Plant response rating, Rice (rice; 250 g ai/ha): 0; Plant response rating, Ducksalad (ducksalad; 250 g ai/ha): 60; Plant response rating, Velvetleaf (velvetleaf; [3]): 0; Plant response rating, Velvetleaf (velvetleaf; [4]): 0; Plant response rating, Velvetleaf (velvetleaf; [5]): 0; Plant response rating, Velvetleaf (velvetleaf; [6]): 0; Plant response rating, Barnyardgrass (barnyardgrass [2]; 250 g ai/ha): 0; Plant response rating, Foxtail, Giant (giant foxtail; [3]): 60; Plant response rating, Foxtail, Giant (giant foxtail; [4]): 80; Plant response rating, Foxtail, Giant (giant foxtail; [5]): 50; Plant response rating, Foxtail, Giant (giant foxtail; [6]): 90; Plant response rating, Crabgrass, Large (crabgrass, large; [3]): 80; Plant response rating, Crabgrass, Large (crabgrass, large; [4]): 90; Plant response rating, Crabgrass, Large (crabgrass, large; [5]): 90; Plant response rating, Crabgrass, Large (crabgrass, large; [6]): 90
4 | O=C1NCC(c2ccc(C(F)(F)F)cc2F)C1C(=O)Nc1cccc(F)c1F (racemic) [Compound 260] | 0 | 0 | 0 | 10 | 0 | 50 | 20 | 50 | 70 | 80 | 70 | 80 | 60 | 70 | 60 | 80 | 0 | 0 | 0 | 0 | Plant response rating, Sedge, Umbrella (sedge, umbrella; 1000 g ai/ha): 0; Plant response rating, Rice (rice; 1000 g ai/ha): 0; Plant response rating, Ducksalad (ducksalad; 1000 g ai/ha): 95; Plant response rating, Velvetleaf (velvetleaf; [6]): 40; Plant response rating, Barnyardgrass (barnyardgrass [2]; 1000 g ai/ha): 0; Plant response rating, Foxtail, Giant (giant foxtail; [3]): 80; Plant response rating, Foxtail, Giant (giant foxtail; [4]): 90; Plant response rating, Foxtail, Giant (giant foxtail; [5]): 80; Plant response rating, Foxtail, Giant (giant foxtail; [6]): 90; Plant response rating, Crabgrass, Large (crabgrass, large; [3]): 90; Plant response rating, Crabgrass, Large (crabgrass, large; [4]): 90; Plant response rating, Crabgrass, Large (crabgrass, large; [5]): 90; Plant response rating, Crabgrass, Large (crabgrass, large; [6]): 90
5 | O=C1NCC(c2ccc(C(F)(F)F)cc2F)C1C(=O)Nc1ccccc1C(F)(F)F (racemic) [Compound 261] | 0 | 0 | 0 | 0 | 0 | 0 | 0 | 0 | 0 | 50 | 0 | 0 | 0 | 40 | 0 | 0 | 0 | 0 | 0 | 0 | Plant response rating, Sedge, Umbrella (sedge, umbrella; 1000 g ai/ha): 0; Plant response rating, Rice (rice; 1000 g ai/ha): 0; Plant response rating, Ducksalad (ducksalad; 1000 g ai/ha): 90; Plant response rating, Velvetleaf (velvetleaf; [3]): 0; Plant response rating, Velvetleaf (velvetleaf; [4]): 30; Plant response rating, Velvetleaf (velvetleaf; [5]): 0; Plant response rating, Velvetleaf (velvetleaf; [6]): 0; Plant response rating, Barnyardgrass (barnyardgrass [2]; 1000 g ai/ha): 0; Plant response rating, Foxtail, Giant (giant foxtail; [3]): 0; Plant response rating, Foxtail, Giant (giant foxtail; [4]): 60; Plant response rating, Foxtail, Giant (giant foxtail; [5]): 10; Plant response rating, Foxtail, Giant (giant foxtail; [6]): 70; Plant response rating, Crabgrass, Large (crabgrass, large; [3]): 70; Plant response rating, Crabgrass, Large (crabgrass, large; [4]): 80; Plant response rating, Crabgrass, Large (crabgrass, large; [5]): 80; Plant response rating, Crabgrass, Large (crabgrass, large; [6]): 90
